Assay results from US10383849B2, “Use of an acetylcholinesterase inhibitor and idalopirdine for reducing falls in Parkinson's disease patients” (H. Lundbeck A/S, priority 2016, dated 2019).

Tests used:
[1] = tested on: DL rats (dual striatal-dopaminergic, cortical cholinergic system lesions); assay: MCMCT rod traversal, stationary and rotating rod (test days 2-5), Example 1; format: in vivo, Sprague Dawley rats; settings: for number of slips: rod days 2-5, DL/VEH 2.04+0.16, SH/VEH 1.60+0.11; for traversal speed (time per rod traversal): rod days 2-5, DL/VEH 4.62±0.25 s, SH/VEH 3.96±0.19 s, mean±SEM; for frequency of falls during rod traversal: s.c. 30 min before MCMCT, across all rod conditions days 2-5, compared with DL/VEH
Protocol: Adult male and female Sprague Dawley rats (Harlan; N=70; 35 males and 35 females) between 3 and 6 months of age were individually housed in opaque single standard cages (27.70 cm×20.30 cm) in a temperature- and humidity-controlled environment (23° C., 45%). […] The animals were maintained under a 12:12 hour light/dark schedule (lights on at 8:00 AM). Food (Rodent Chow; Harlan Teklad) was available ad libitum. Water access was gradually restricted over a 7-day period (12, 8, 5, 3, 1, 0.5, 0.25 hrs of water access per day) in the week before pre- and postsurgery behavioral testing. During testing, water was provided as rewards for correct responses during SAT performance and following beam traversals on the MCMCT (see below). Rats were also provided water ad libitum for 15 min following SAT performance each day.
Following pre-surgery training, animals underwent stereotaxic lesion surgeries followed by 4 weeks of recovery. During the final week of recovery animals were gradually water restricted. Drug effects were then assessed with 12 consecutive days of SAT and MCMCT sessions (see Table 1 for the battery of MCMCT test conditions):
Drug or vehicle injections were administered 30 minutes prior to SAT performance (˜9:30 injections, SAT testing 10:00-10:45 a.m.) and in the afternoon before MCMCT testing (˜3:30-6:00 p.m.). For the MCMCT runs, rats were injected individually so that trials began exactly 30 minutes after injection for each animal.
(§1) Of the 70 rats, 56 (28 females and 28 males) received dual striatal-dopaminergic, corticalcholinergic system lesions (DL) and were randomly assigned to 4 treatment conditions after surgeries (n=14/group, 7/sex). 14 rats (7/sex) received sham lesions. 6-OHDA was delivered bilaterally to dopamine terminals in the dorsal striatum (Sigma-Aldrich; 6.0 μg/2 μL/infusion, bolus; dissolved in 0.9% NaCl with 0.1% ascorbic acid; two infusion sites per hemisphere: AP+1.2 and +0.2 mm; ML ±2.5 and ±3.0 mm relative to bregma; DV −4.8 and −5.0 mm from skull). Desipramine hydrochloride (10 mg/kg; i.p.; Sigma-Aldrich) was administered to rats receiving 6-OHDA infusions 30 min prior to surgeries for protection of noradrenergic neurons^4. Basal forebrain cholinergic neurons situated in the nucleus basalis and substantia innominate were targeted with immunotoxin 192 IgG-saporin (Advanced Targeting Systems) in aCSF infused bilaterally (120 ng/μL; 0.5 μL/hemisphere; AP −0.8; ML ±2.9; DV −7.8). Sham rats received equal volumes of 0.9% NaCl with 0.1% ascorbic acid (striatum) and aCSF (basal forebrain) without neurotoxins.
Complex movement performance measures including fall propensity were assessed using the MCMCT (for details and an illustration see Kucinski, A. et al (2013) Modelling fall propensity in Parkinson's disease: Deficits in the attentional control of complex movements in rats with cortical-cholinergic and striatal-dopaminergic deafferentation. J Neurosci, 33, 16522-16539). This beam traversal apparatus was designed to tax the ability of rats to perform attention demanding movements and correct for stepping errors while crossing a narrow square rod surface (2.54 cm2). The ends of the beam (2.0 m length) were held in sockets that allowed the rod to be rotated by a gear motor (10 RPM) coupled to one end of the beam element. Traversal of the rod, particularly when rotating, reliably generated falls and other movement impairments in rats with dual lesions of striatal dopaminergic and cortical cholinergic inputs. A flat plank surface (13.3 cm wide) was also used to assess basic motor capacity and for habituation to the apparatus. Two identical platforms (23.0×31.5 cm area) situated at the opposite ends of the beam were surrounded by retractable walls (27.0 cm height) to form end-box structures. The walls are raised and lowered manually and secured in position by a friction clamp which rides in a vertical slot in the support structure under the platform. […]

[2] = tested on: DL rats (dual striatal-dopaminergic, cortical cholinergic system lesions); assay: MCMCT rotating rod with passive doorframe distractor (test days 6, 7, 11); format: in vivo, Sprague Dawley rats; settings: compared with SH/VEH rats
Protocol: Of the 70 rats, 56 (28 females and 28 males) received dual striatal-dopaminergic, corticalcholinergic system lesions (DL) and were randomly assigned to 4 treatment conditions after surgeries (n=14/group, 7/sex). 14 rats (7/sex) received sham lesions. 6-OHDA was delivered bilaterally to dopamine terminals in the dorsal striatum (Sigma-Aldrich; 6.0 μg/2 μL/infusion, bolus; dissolved in 0.9% NaCl with 0.1% ascorbic acid; two infusion sites per hemisphere: AP+1.2 and +0.2 mm; ML ±2.5 and ±3.0 mm relative to bregma; DV −4.8 and −5.0 mm from skull). […]
Complex movement performance measures including fall propensity were assessed using the MCMCT (for details and an illustration see Kucinski, A. et al (2013) Modelling fall propensity in Parkinson's disease: Deficits in the attentional control of complex movements in rats with cortical-cholinergic and striatal-dopaminergic deafferentation. J Neurosci, 33, 16522-16539). […]
Falls, slips, and traversal time were assessed as described in Kucinski, A. et al (2013) Modelling fall propensity in Parkinson's disease: Deficits in the attentional control of complex movements in rats with cortical-cholinergic and striatal-dopaminergic deafferentation. […] A slip was scored when any of the rats' paws lost contact with the surface of the rod and extended below the lower horizontal border of the rod. […]

[3] = tested on: DL rats (dual striatal-dopaminergic, cortical cholinergic system lesions); assay: MCMCT rotating rod with active distractor (water retrieval); format: in vivo, Sprague Dawley rats; settings: for number of animals that retrieved water in at least one trial: of 14 DL rats per group, licking water for at least 1 s, DL/VEH 9, SH/VEH 13
Protocol: as §1
Two distractors were presented during traversals. First, a passive doorframe distractor, comprised of a 46.0×39.4 cm surface with a door-frame shape cutout of 20 cm×10 cm made of foam core, was incorporated into the MCMCT test sequence. The distractor was placed at the midway point along the beam (100 cm mark) with side jambs 3.5 cm from the rod surface on both sides and the top border of the doorframe cutout 11 cm above the flat rod surface. […] Second, animals were tested with an active distractor task in which a water reward (3 drops of water; ˜150 μL) was presented on a platform (4.9 cm diameter) during traversals. The platform was also placed at the 100 cm mark, with 2-3 cm separating the rod and the platform.
Rats were first acclimated to the task in 4 shaping trials (test days 8 and 9). In these trials rats were placed directly on the stationary (non-rotating) rod adjacent to the platform (approximately midway across the beam) and allowed to drink the water from the platform. After shaping trials, rats underwent 4 test trials in which the rats performed unassisted traversals of the rotating rod (alternating directions) with presentations of water rewards. In two other test days (10 and 12), rats performed 10 test runs per day. In addition to falls, the number of water rewards earned, defined as licking/drinking water from the platform for ≥1 sec, were counted. All trials were recorded using a system of 4 bullet cameras (KT&C; model KPCS190SH Black/White Bullet Camera with ⅓″ SONY Super HAD CCD) with rotatable bases that were fastened to the outer support frame of the outer side of the apparatus by hand clamps. Performance measures were analyzed by video playback by experimenters blind to the lesion status and treatment regimen of the rats
Donepezil and idalopirdine were dissolved in 5% 2-hydroxypropyl-beta-cyclodextrin vehicle solution. Rats were divided into the following drug administration groups (14 per group, 7 per sex): sham-lesioned and administered vehicle (SH/VEH), DL and vehicle (DL/VEH), DL and donepezil (DL/DON), DL and idalopirdine (DL/IDL), and DL and idalopirdine plus donepezil (DL/DON+IDL). Solutions were prepared the night before administration and were replaced every 6 days. DON and IDL were dissolved in the same solution for the combination treatment. […]

patients with AD = settings: compared to donepezil treated patients; cited from earlier work

| Compound | number of slips [1] | traversal speed (time per rod traversal) [1] [s] | frequency of falls during rod traversal [1] | doorframe-associated falls (fall rates in the presence of the doorframe) [2] | rod traversal performance in the presence of the active distractor ([3]; DL rats) | water retrieval count ([3]; DL rats, multiple comparisons (FIG. 3B)) | number of animals that retrieved water in at least one trial [3] | secondary endpoints including measures of global impression and daily living activities (patients with AD) |
| --- | --- | --- | --- | --- | --- | --- | --- | --- |
| COc1cc2c(cc1OC)C(=O)C(CC1CCN(Cc3ccccc3)CC1)C2 (centres unmarked) [DON, donepezil] | 2.04+0.14 | 4.48 ± 0.36 | tended to be lower than in DL/VEH rats but the effect did not reach significance | experienced more doorframe-associated falls than SH/VEH rats | did not significantly improve the performance | not significantly lower than DL/VEH | 10 | – |
| Fc1ccc2c(CCNCc3cccc(OCC(F)(F)C(F)F)c3)c[nH]c2c1 [IDL, N-(2-(6-fluoro-1H-indol-3-yl)ethyl)-3-(2,2,3,3-tetrafluoropropoxy) benzylamine] | 2.51+0.38 | 5.48 ± 0.45 | fell as frequently as untreated DL rats | experienced more doorframe-associated falls than SH/VEH rats | did not significantly improve the performance | – | 11 | positive results |
